Structures are written as SMILES. Numbered stars: 1 amine (or outer) side, 2 acyl side, 3 side chain; on linkers, the order of the positions; unused ones are H or OH. Bridge positions count the residues as written; N and C are the ends. Square brackets hold non-standard residues; d marks the D form. Peptide text beside a SMILES is read from it. * marks the point of attachment. ξ: configuration not given here. TBMB(SCH2CH2NH-DOTA) = O=C(O)CN1CCN(CC(=O)O)CCN(CC(=O)NCCSCc2cc(C[*:1])cc(C[*:2])c2)CCN(CC(=O)O)CC1; X7 = O=C(CCP(=O)(O)CN1CCN(CP(=O)(O)CO)CCN(CP(=O)(O)CO)CC1)NCCSCc1cc(C[*:1])cc(C[*:2])c1; DOTA = O=C(O)CN1CCN(CC(=O)O)CCN(CC(=O)*)CCN(CC(=O)O)CC1; mXylylene = c1cc(C[*:1])cc(C[*:2])c1; Pentanesulfonyl = CCCCCS(=O)(=O)*; Pyrazinecarbonyl = O=C(c1cnccn1)*; Hyp = O=C(O)[C@@H]1C[C@@H](O)CN1; NMeF = CN[C@@H](Cc1ccccc1)C(=O)O; Nphe = O=C(O)CNCc1ccccc1; Orn = NCCC[C@H](N)C(=O)O; Hexanoyl = CCCCCC(=O)*; Nleu = CC(C)CNCC(=O)O; Nlys = NCCCCNCC(=O)O; Ahx = NCCCCCC(=O)O; ξC = NC(CS)C(=O)O Some results are limits rather than exact numbers.

The values below come from patent publication US20230212549A1, “COMPOUNDS COMPRISING A […] LIGAND AND USE THEREOF” (priority 2021, published 2023).

Assay [1] has as its target T1, FAP-expressing human WI-38 fibroblasts (Homo sapiens, UniProt Q12884).
T1 construct: FAP-expressing human WI-38 fibroblasts (ECACC) were cultured in EMEM; host or cells: WI-38 human fibroblasts
The assay can be described thus: Competitive FACS binding assay. The procedure:
Cells were analyzed in an Attune NxT flow cytometer. […] […].
Cells were analyzed in an Attune NxT flow cytometer. […]

In assay [2] the target is Human recombinant FAP (Homo sapiens, UniProt Q12884). In words: FRET-based FAP protease activity assay. The assay is classed as biochemical. More on the design: purchased R&D systems 3715-SE.
Human recombinant FAP, sequence (Q12884 whole entry): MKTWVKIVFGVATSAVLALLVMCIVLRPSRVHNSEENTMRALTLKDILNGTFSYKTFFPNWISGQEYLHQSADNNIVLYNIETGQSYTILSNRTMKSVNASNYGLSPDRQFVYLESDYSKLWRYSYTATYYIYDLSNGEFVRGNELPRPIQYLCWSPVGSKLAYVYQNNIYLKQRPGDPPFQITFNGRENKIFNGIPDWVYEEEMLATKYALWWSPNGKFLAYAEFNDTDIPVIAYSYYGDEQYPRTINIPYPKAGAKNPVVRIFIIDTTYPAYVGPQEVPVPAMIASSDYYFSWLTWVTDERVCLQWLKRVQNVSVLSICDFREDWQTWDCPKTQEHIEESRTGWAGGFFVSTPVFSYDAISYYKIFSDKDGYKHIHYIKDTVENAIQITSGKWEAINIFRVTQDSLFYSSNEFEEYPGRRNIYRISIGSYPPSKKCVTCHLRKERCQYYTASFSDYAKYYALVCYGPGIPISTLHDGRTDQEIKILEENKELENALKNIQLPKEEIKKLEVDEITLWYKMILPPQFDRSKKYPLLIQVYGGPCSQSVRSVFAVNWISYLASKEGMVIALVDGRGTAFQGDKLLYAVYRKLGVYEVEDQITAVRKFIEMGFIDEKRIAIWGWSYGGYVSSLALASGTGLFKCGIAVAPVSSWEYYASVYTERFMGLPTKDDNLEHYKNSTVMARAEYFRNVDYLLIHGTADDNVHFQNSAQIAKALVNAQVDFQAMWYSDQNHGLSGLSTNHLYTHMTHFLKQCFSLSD
[3] abbreviates: pIC50 Category (Activity), FRET-based FAP protease activity assay, recombinant human FAP, 37° C.
Where [4] appears, read: pIC50 Category (Activity), FRET-peptide substrate, 37° C.

T1 sequence (Q12884 whole entry): as above

As to `C[C@@H](O)[C@@H]1NC(=O)[C@@H]2CCCN2C(=O)[C@@H]2CCCN2C(=O)[C@@H](NC(=O)CCCCCN)CSCc2cccc(c2)CSC[C@@H](C(N)=O)NC(=O)[C@H](Cc2ccccc2)NC(=O)[C@H](CCC(N)=O)NC1=O` [3BP-3759, H-Ahx-[Cys(3MeBn)-Pro-Pro-Thr-Gln-Phe-Cys]-NH2], the IC50 in assay [1] and in assay [2] (setting [3]) was more than 1000 nM in each case.
On to `CCCCCC(=O)N[C@H]1CSCc2cccc(c2)CSC[C@@H](C(N)=O)NC(=O)[C@H](Cc2ccccc2)NC(=O)[C@H](CCC(N)=O)NC(=O)[C@H]([C@@H](C)O)NC(=O)[C@@H]2CCCN2C(=O)CN(CC(C)C)C1=O` [3BP-3749, Hex-[Cys(3MeBn)-Nleu-Pro-Thr-Gln-Phe-Cys]-NH2] (Hexanoyl-C[Nleu]PTQFC-NH2; linker 1-7 via mXylylene), for which the IC50 in assay [1] and in assay [2] (setting [3]) was more than 1000 nM throughout.
For `CCCCCS(=O)(=O)N[C@H]1CSCc2cc(CSCCNC(=O)CN3CCN(CC(=O)O)CCN(CC(=O)O)CCN(CC(=O)O)CC3)cc(c2)CSC[C@@H](C(=O)O)NC(=O)[C@H](Cc2ccccc2)NC(=O)[C@H](CCC(=O)O)NC(=O)[C@H]([C@@H](C)O)NC(=O)[C@@H]2CCCN2C(=O)[C@@H]2CCCN2C1=O` [3BP-3691, Pentyl-SO2-[Cys(tMeBn(DOTA-AET))-Pro-Pro-Thr-Glu-Phe-Cys]-OH] (Pentanesulfonyl-CPPTEFC-OH; linker 1-7 via TBMB(SCH2CH2NH-DOTA)), the figures for the IC50 in assay [1] and in assay [2] (setting [3]) were less than 10 nM and 10 to 79.4 nM, respectively.
The like results for `C[C@@H](O)[C@@H]1NC(=O)[C@@H]2CCCN2C(=O)[C@@H]2CCCN2C(=O)[C@@H](NC(=O)CCCCCNC(=O)CN2CCN(CC(=O)O)CCN(CC(=O)O)CCN(CC(=O)O)CC2)CSCc2cccc(c2)CSC[C@@H](C(=O)N[C@@H](CC(=O)O)C(=O)N[C@@H](Cc2c[nH]cn2)C(=O)N(C)[C@@H](Cc2ccccc2)C(=O)N[C@@H](CCCNC(=N)N)C(=O)N[C@@H](CC(=O)O)C(N)=O)NC(=O)[C@H](Cc2ccccc2)NC(=O)[C@H](CCC(=O)O)NC1=O` [3BP-3266, DOTA-Ahx-[Cys(3MeBn)-Pro-Pro-Thr-Glu-Phe-Cys]-Asp-His-Nmf-Arg-Asp-NH2] ({DOTA-Ahx}-CPPTEFCDH[NMeF]RD-NH2; linker 1-7 via mXylylene) were, in that order, 100 to 794 nM and 100 to 794 nM.
Consider `C[C@@H](O)[C@@H]1NC(=O)[C@@H]2CCCN2C(=O)[C@@H]2CCCN2C(=O)[C@@H](NC(=O)[C@H]2CCCO2)CSCc2cc(CSCCNC(=O)CN3CCN(CC(=O)O)CCN(CC(=O)O)CCN(CC(=O)O)CC3)cc(c2)CSC[C@@H](C(=O)O)NC(=O)[C@H](Cc2ccccc2)NC(=O)[C@H](CCC(N)=O)NC1=O` [3BP-3911, Rth-[Cys(tMeBn(DOTA-AET))-Pro-Pro-Thr-Gln-Phe-Cys]-OH], for which the IC50 in assay [1] and in assay [2] (setting [4]) was 10 to 79.4 nM in each case.
As to `CCCCCC(=O)N[C@H]1CSCc2cccc(c2)CSC[C@@H](C(N)=O)NC(=O)[C@H](Cc2ccccc2)NC(=O)[C@H](CCC(N)=O)NC(=O)[C@H]([C@@H](C)O)NC(=O)[C@@H]2CCCN2C(=O)CN(CCCCN)C1=O` [3BP-3747, Hex-[Cys(3MeBn)-Nlys-Pro-Thr-Gln-Phe-Cys]-NH2] (Hexanoyl-C[Nlys]PTQFC-NH2; linker 1-7 via mXylylene), the IC50 in assay [1] and in assay [2] (setting [3]) was more than 1000 nM each time.
With `C[C@@H](O)[C@@H]1NC(=O)[C@@H]2CCCN2C(=O)[C@@H]2CCCN2C(=O)[C@@H](NC(=O)CCCS(N)(=O)=O)CSCc2cccc(c2)CSC[C@@H](C(N)=O)NC(=O)[C@H](Cc2ccccc2)NC(=O)[C@H](CCC(N)=O)NC1=O` [3BP-3860, H2NSO2-But-[Cys(3MeBn)-Pro-Pro-Thr-Gln-Phe-Cys]-NH2], the IC50 in assay [1] and in assay [2] (setting [3]) was more than 1000 nM each time.
Turning to `CCCOCC(=O)N[C@H]1CSCc2cc(CSCCNC(=O)CN3CCN(CC(=O)O)CCN(CC(=O)O)CCN(CC(=O)O)CC3)cc(c2)CSC[C@@H](C(=O)O)NC(=O)[C@H](Cc2ccccc2)NC(=O)[C@H](CCC(N)=O)NC(=O)[C@H]([C@@H](C)O)NC(=O)[C@@H]2CCCN2C(=O)[C@@H]2CCCN2C1=O` [3BP-3938, PrOAc-[Cys(tMeBn(DOTA-AET))-Pro-Pro-Thr-Gln-Phe-Cys]-OH], the IC50 in assay [1] and in assay [2] (setting [4]) was less than 10 nM throughout.
On to `CCCCCC(=O)N[C@H]1CSCc2cc(CSCCNC(=O)CCC(=O)NCCCOCCOCCOCCCNC(=O)[C@H](CO)NC(=O)[C@H](CO)NC(=O)[C@H](CO)NC(=O)CS)cc(c2)CSC[C@@H](C(=O)O)NC(=O)[C@H](Cc2ccccc2)NC(=O)[C@H](CCC(N)=O)NC(=O)[C@H]([C@@H](C)O)NC(=O)[C@@H]2CCCN2C(=O)[C@@H]2CCCN2C1=O` [3BP-4308, Hex-[Cys-(tMeBn(H-SAc-Ser-Ser-Ser-Ttds-AET))-Pro-Pro-Thr-Gln-Phe-Cys]-OH], for which the IC50 in assay [1] and in assay [2] (setting [4]) was 10 to 79.4 nM in each case.
Consider `C[C@@H](O)[C@@H]1NC(=O)[C@@H]2CCCN2C(=O)[C@@H]2CCCN2C(=O)[C@@H](NC(=O)C2CCCCC2)CSCc2cc(CSCCNC(=O)CN3CCN(CC(=O)O)CCN(CC(=O)O)CCN(CC(=O)O)CC3)cc(c2)CSC[C@@H](C(=O)O)NC(=O)[C@H](Cc2ccccc2)NC(=O)[C@H](CCC(N)=O)NC1=O` [3BP-3908, Chex-[Cys(tMeBn(DOTA-AET))-Pro-Pro-Thr-Gln-Phe-Cys]-OH], for which the IC50 in assay [1] and in assay [2] (setting [4]) was 100 to 794 nM in each case.
On to `COCCCC(=O)N[C@H]1CSCc2cc(CSCCNC(=O)CN3CCN(CC(=O)O)CCN(CC(=O)O)CCN(CC(=O)O)CC3)cc(c2)CSC[C@@H](C(=O)O)NC(=O)[C@H](Cc2ccccc2)NC(=O)[C@H](CCC(N)=O)NC(=O)[C@H]([C@@H](C)O)NC(=O)[C@@H]2CCCN2C(=O)[C@@H]2CCCN2C1=O` [3BP-3937, MeOBut-[Cys(tMeBn(DOTA-AET))-Pro-Pro-Thr-Gln-Phe-Cys]-OH], for which the IC50 is less than 10 nM in assay [1] and 10 to 79.4 nM in assay [2] (setting [4]).
In the case of `CCCCCC(=O)N[C@H]1CSCc2cccc(c2)CSC[C@@H](C(N)=O)NC(=O)CN(Cc2ccccc2)C(=O)[C@H](CCC(=O)O)NC(=O)[C@H]([C@@H](C)O)NC(=O)[C@@H]2CCCN2C(=O)[C@@H]2CCCN2C1=O` [3BP-3360, Hex-[Cys(3MeBn)-Pro-Pro-Thr-Glu-Nphe-Cys]-NH2] (Hexanoyl-CPPTE[Nphe]C-NH2; linker 1-7 via mXylylene), the IC50 in assay [1] and in assay [2] (setting [3]) was more than 1000 nM in each case.
With `CCCCCC(=O)N[C@H]1CSCc2cc(CSCCNC(=O)CCP(=O)(O)CN3CCN(CP(=O)(O)CO)CCN(CP(=O)(O)CO)CC3)cc(c2)CSCC(C(=O)O)NC(=O)[C@H](Cc2ccccc2)NC(=O)[C@H](CCC(=O)O)NC(=O)[C@H]([C@@H](C)O)NC(=O)[C@@H]2CCCN2C(=O)[C@@H]2CCCN2C1=O` (stereo partly drawn) [3BP-4818, Hex-[Cys(tMeBn(NOPO-AET))-Pro-Pro-Thr-Glu-Phe-Cys]-OH] (Hexanoyl-CPPTEF[ξC]-OH; linker 1-7 via X7), the IC50 in assay [1] lay in the range of 10 to 79.4 nM; in assay [2] (pIC50 Category (activity), Recombinant human FAP), 10 to 79.4 nM.
Take `CCCCCC(=O)N[C@H]1CSCc2cccc(c2)CSC[C@@H](C(N)=O)NC(=O)[C@H](Cc2ccccc2)NC(=O)[C@H](CCC(=O)O)NC(=O)[C@H](CCCNC(=O)c2cnccn2)NC(=O)[C@@H]2CCCN2C(=O)[C@@H]2CCCN2C1=O` [3BP-3355, Hex-[Cys(3MeBn)-Pro-Pro-Opc-Glu-Phe-Cys]-NH2] (Hexanoyl-CPP[Orn](Pyrazinecarbonyl)EFC-NH2; linker 1-7 via mXylylene): the figures for the IC50 in assay [1] and in assay [2] (setting [3]) were more than 1000 nM and 100 to 794 nM, respectively.
For `CCCC[C@H](NC(=O)CCC(=O)NCCCOCCOCCOCCCNC(=O)CN1CCN(CC(=O)O)CCN(CC(=O)O)CCN(CC(=O)O)CC1)C(=O)N[C@H]1CSCc2cc(CSCCNC(=O)CN3CCN(CC(=O)O)CCN(CC(=O)O)CCN(CC(=O)O)CC3)cc(c2)CSC[C@@H](C(=O)N[C@@H](CC(=O)O)C(=O)NCCCOCCOCCOCCCNC(=O)CCC(=O)N[C@@H](CCCCNC(=O)CN2CCN(CC(=O)O)CCN(CC(=O)O)CCN(CC(=O)O)CC2)C(N)=O)NC(=O)[C@H](Cc2ccccc2)NC(=O)[C@H](CCC(N)=O)NC(=O)[C@H]([C@@H](C)O)NC(=O)[C@@H]2CCCN2C(=O)[C@@H]2CCCN2C1=O` [3BP-4392, DOTA-Ttds-Nle-[Cys(tMeBn(DOTA-AET))-Pro-Pro-Thr-Gln-Phe-Cys]-Asp-Ttds-Lys(DOTA)-NH2], the IC50 in assay [1] and in assay [2] (setting [4]) was 10 to 79.4 nM each time.
Turning to `CCCC[C@H](NC(=O)[C@H](CCC(=O)NC[C@H](O)[C@@H](O)[C@H](O)[C@H](O)CO)NC(=O)CCC(=O)NCCCOCCOCCOCCCNC(=O)C(CNCCN)CNCCN)C(=O)N[C@H]1CSCc2cccc(c2)CSC[C@@H](C(=O)O)NC(=O)[C@H](Cc2ccccc2)NC(=O)[C@H](CCC(N)=O)NC(=O)[C@H]([C@@H](C)O)NC(=O)[C@@H]2CCCN2C(=O)[C@@H]2CCCN2C1=O` [3BP-4248, N4Ac-Ttds-Glu(AGLU′)-Nle-[Cys-(3MeBn)-Pro-Pro-Thr-Gln-Phe-Cys]-OH], the IC50 in assay [1] and in assay [2] (setting [4]) was more than 1000 nM in each case.
As for `CCCCCC(=O)N[C@H]1CSCc2cccc(c2)CSC[C@@H](C(N)=O)NC(=O)[C@H](Cc2ccccc2)NC(=O)[C@H](CCC(=O)O)NC(=O)[C@H]([C@@H](C)O)NC(=O)[C@@H]2C[C@@H](O)CN2C(=O)[C@@H]2CCCN2C1=O` [3BP-3366, Hex-[Cys(3MeBn)-Pro-Hyp-Thr-Glu-Phe-Cys]-NH2] (Hexanoyl-CP[Hyp]TEFC-NH2; linker 1-7 via mXylylene), the IC50 in assay [1] and in assay [2] (setting [3]) was 10 to 79.4 nM throughout.
